13 compounds from patent US11491165B2 (Kinoxis Therapeutics Pty Ltd, priority 2016, dated 2022) can be followed below.

Each structure is given as a SMILES string.

One data set deals with BALB/c mice. The data set can be described thus: Murine social interaction test. The format is in vivo, Mus musculus. To be noted: male BALB/c mice, i.p., 10 min test 30 min after injection. How it is done:
Example Testing Effect of WJ0679 on Murine Social Interaction (N=46)
Age: 6-7 weeks at testing
Vehicle: 88% isotonic saline, 10% DMSO, 2% tween 80
Route of administration: intraperitoneal (i.p.) injection
Mice were placed in the arena (40×40×40 cm) in weight and treatment matched pairs of unfamiliar mice for a 10 min test session, commencing 30 min after receiving their i.p. injection. The variables of interest were the time the mice spent in close physical contact with each other and the time each mouse spent engaged in active social investigation (sniffing the other mouse).

In data set [1] the target is T1, oxytocin receptor (OXTR), hOTR (Homo sapiens, UniProt P30559).
T1 construct: expressed in transfected cells
T1 sequence (P30559 1-389): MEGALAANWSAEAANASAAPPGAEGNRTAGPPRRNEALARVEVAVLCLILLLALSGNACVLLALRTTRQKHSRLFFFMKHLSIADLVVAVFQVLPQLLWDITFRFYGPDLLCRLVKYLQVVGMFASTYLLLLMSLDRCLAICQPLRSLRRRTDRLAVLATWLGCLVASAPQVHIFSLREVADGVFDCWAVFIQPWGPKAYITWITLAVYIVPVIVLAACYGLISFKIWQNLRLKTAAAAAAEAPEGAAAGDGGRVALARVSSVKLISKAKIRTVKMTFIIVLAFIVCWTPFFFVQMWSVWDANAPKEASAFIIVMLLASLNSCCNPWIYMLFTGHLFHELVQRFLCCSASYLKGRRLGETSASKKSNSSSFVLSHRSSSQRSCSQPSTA
As to the kind of experiment: IP1 accumulation assay, OTR-expressing HEK-293 cells (agonist and antagonist assessment). To be noted: for Emax: HEK293, read-out: OXTR Emax (% OXT); for EC50 (OXTR agonist potency, mean ± s.d.) / EC50: agonist assessment; for EC50 (OXTR agonist potency, mean ± s.d.) / IC50: IP1; for EC50: IP1, 1 h; for OV function: ratio of OXTR functional potency to V1aR functional potency, 'OT only' = function at OXTR only; for IC50: antagonist assessment vs OT 30 nM (~EC70). The format is cell-based. A digest of the protocol:
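Flp-In T-REx HEK-293 cells stably expressing untagged hOTR were induced with tetracycline for 48 h, then exposed 1 h to compound (1 nM-100 μM) alone (agonist mode) or with 30 nM OT (~EC70; antagonist mode). IP1 was measured by HTRF, expressed as % of OT-plus-vehicle and fitted to a 4-parameter logistic curve; n≥3 experiments in duplicate.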

In data set [2] the target is T2, vasopressin 1a receptor (V1aR) (Homo sapiens, UniProt P37288).
T2 construct: expressed in transfected cells
The data set can be described thus: Competition radioligand binding, [3H]-vasopressin, V1aR-expressing HEK293 membranes. To be noted: [3H]-vasopressin 2 nM, 90 min 4 °C.

For data set [3], the target named is T2, vasopressin 1a receptor (V1aR). The data set can be described thus: IP1 accumulation assay, V1aR-expressing HEK-293 cells (agonist and antagonist assessment). It counts as cell-based. To be noted: for EC50: agonist assessment, IP1, 1 h; for IC50: antagonist assessment vs AVP 25 nM (~EC70), IP1.
For data set [4], the target named is T1, oxytocin receptor (OXTR), hOTR. The data set can be described thus: Competition radioligand binding, [3H]-oxytocin, OTR-expressing HEK293 membranes. To be noted: [3H]-oxytocin 10 nM, 90 min 4 °C.

T2 sequence (P37288 whole entry): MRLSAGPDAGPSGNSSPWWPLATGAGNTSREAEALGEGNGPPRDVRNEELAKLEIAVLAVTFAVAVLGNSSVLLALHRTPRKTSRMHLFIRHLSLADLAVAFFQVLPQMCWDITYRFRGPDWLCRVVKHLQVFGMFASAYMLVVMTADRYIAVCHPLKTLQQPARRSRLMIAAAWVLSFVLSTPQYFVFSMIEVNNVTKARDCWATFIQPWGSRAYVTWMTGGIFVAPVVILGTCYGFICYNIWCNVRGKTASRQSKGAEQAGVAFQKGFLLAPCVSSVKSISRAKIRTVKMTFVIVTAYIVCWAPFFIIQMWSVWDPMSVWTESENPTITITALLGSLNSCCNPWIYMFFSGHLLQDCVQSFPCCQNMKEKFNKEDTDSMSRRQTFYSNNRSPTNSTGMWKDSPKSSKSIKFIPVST

With `Cn1ncc2c1Nc1ccccc1N(C(=O)c1cccc(F)c1)C2` [WJ0679, (3-Fluorophenyl)(1-methyl-4,10-dihydrobenzo[b]pyrazolo[3,4-e][1,4]diazepin-5 (1H)-yl)methanone], the melting point was 286 to 288 °C (dec.). Further, the “time spent in close physical contact (huddling time)” value in the data set on BALB/c mice (all doses (1, 5, 20 mg/kg), most pronounced at 1 and 5 mg/kg, FIG. 1) is listed as “significantly increased”. In addition, in the data set with BALB/c mice (doses of 1 and 20 mg/kg, FIG. 2), the “active social investigation time” value was “significantly increased”. In addition, in data set [1], the Emax amounted to 12.6%; the “EC50 (OXTR agonist potency, mean ± s.d.)” value is 316 ± 108 nM; the response was half-maximal at 406 ± 74 nM (EC50); the OV function was 0.18. This compound returned a Ki in data set [2] of 105 ± 10.5 nM. For the same compound, in data set [3], the EC50 is above 10000 nM and the IC50 was 2200 ± 511 nM. Besides, the Ki in data set [4] was found to be 422 ± 129 nM.
For `Cn1ncc2c1Nc1ccccc1N(C(=O)c1ccccc1)C2` [WJ0685, (1-Methyl-4,10-dihydrobenzo[b]pyrazolo[3,4-e][1,4]diazepin-5 (1H)-yl)(phenyl)methanone], the melting point is above 300 °C. In data set [1], the Emax was 11.9%; the “EC50 (OXTR agonist potency, mean ± s.d.)” value came out at 297.7 ± 71.3 nM; the EC50 was determined as 847 ± 244 nM. In data set [2], this compound registered a Ki of 81.6 ± 12.6 nM. Also, in data set [3], the EC50 was above 10000 nM and the IC50 is above 10000 nM. In data set [4], this compound displayed a Ki above 10000 nM.
Compound `Cn1ncc2c1Nc1ccccc1N(C(=O)C13CC4CC(CC(C4)C1)C3)C2` [WJ0687, ((3r,5r,7r)-Adamantan-1-yl)(1-methyl-4,10-dihydrobenzo[b]pyrazolo[3,4-e][1,4]diazepin-5 (1H)-yl)methanone] returned a melting point of 283 to 285 °C. For the same compound, in data set [1], the maximal effect (Emax) came out at 33.3%; the “EC50 (OXTR agonist potency, mean ± s.d.)” value is 834 ± 61.1 nM; the midpoint of the response, the EC50, lay at 4880 ± 141 nM. Further, the affinity in data set [2] corresponds to a Ki of 377 ± 106 nM. In data set [3], this compound displayed an EC50 above 10000 nM and an IC50 above 10000 nM. Further, the Ki in data set [4] was above 10000 nM.
For the compound `Cn1ncc2c1Nc1ccccc1N(C(=O)c1cccnc1)C2` [WJ0753, (1-Methyl-4,10-dihydrobenzo[b]pyrazolo[3,4-e][1,4]diazepin-5 (1H)-yl)(pyridin-3-yl)methanone], the melting point is 247 to 249 °C (dec.). Moreover, in data set [1], the Emax was determined as 9.67%; the “EC50 (OXTR agonist potency, mean ± s.d.)” value is given as 242.1 ± 21.7 nM; the midpoint of the response, the EC50, lay at 3530 ± 634 nM; the IC50 is above 10000 nM. In addition, the Ki in data set [2] was found to be 353 nM. Besides, in data set [3], the EC50 was above 10000 nM and the IC50 is above 10000 nM. The Ki in data set [4] is above 10000 nM.
`Cn1ncc2c1Nc1ccccc1N(C(=O)c1ccc(Cl)cc1)C2` [WJ0755, (4-Chlorophenyl)(1-methyl-4,10-dihydrobenzo[b]pyrazolo[3,4-e][1,4]diazepin-5 (1H)-yl)methanone] had a melting point of 243 to 246 °C. Also, in data set [1], the Emax is 10.2%; the “EC50 (OXTR agonist potency, mean ± s.d.)” value is 255 ± 59.7 nM; the EC50 came to 152 ± 47.3 nM; the OV function is on record as 0.09. Further, in data set [2], the affinity, expressed as Ki, was 174 ± 57.4 nM. In data set [3], this compound displayed an EC50 above 10000 nM and an IC50 of 1670 ± 299 nM. This compound also displayed a Ki in data set [4] of 519 ± 110 nM.
For the compound `Cn1ncc2c1Nc1ccccc1N(C(=O)c1ccncc1)C2` [WJ0757, (1-Methyl-4,10-dihydrobenzo[b]pyrazolo[3,4-e][1,4]diazepin-5 (1H)-yl)(pyridin-4-yl)methanone], the melting point was 267 to 269 °C (dec.). For the same compound, in data set [1], the EC50 was above 10000 nM and the IC50 was above 10000 nM. The compound further displayed an inhibitory constant (Ki) in data set [2] of 751 ± 197 nM. In data set [3], this compound returned an EC50 above 10000 nM and an IC50 above 10000 nM. In data set [4], this compound displayed a Ki above 10000 nM.
For `Cn1ncc2c1Nc1ccccc1N(C(=O)c1ccccn1)C2` [WJ0759, (1-Methyl-4,10-dihydrobenzo[b]pyrazolo[3,4-e][1,4]diazepin-5 (1H)-yl)(pyridin-2-yl)methanone], the melting point was 269 to 271 °C (dec.). In data set [1], this compound displayed an EC50 above 10000 nM and an IC50 above 10000 nM. For the same compound, in data set [2], the affinity corresponds to a Ki of 1120 ± 260 nM. In data set [3], this compound yielded a half-maximal effective concentration (EC50) above 10000 nM and a concentration for half-maximal inhibition (IC50) above 10000 nM. Besides, the Ki in data set [4] is above 10000 nM.
Consider `Cn1ncc2c1Nc1ccccc1N(C(=O)C13CC4CC(F)(CC(F)(C4)C1)C3)C2` [WJ0807dF, ((1r,3R,5S,7r)-3,5-Difluoroadamantan-1-yl)(1-methyl-4,10-dihydrobenzo[b]pyrazolo[3,4-e][1,4]diazepin-5 (1H)-yl)methanone], for which the melting point was 262 to 264 °C (dec.). Also, in data set [1], the Emax worked out at 26.7%; the “EC50 (OXTR agonist potency, mean ± s.d.)” value is given as 667.7 nM; the EC50 turned out to be 4150 ± 1340 nM. In data set [2], this compound gave a Ki of 2210 nM. Moreover, in data set [3], the EC50 is above 10000 nM and the IC50 is above 10000 nM. In addition, the Ki in data set [4] is above 10000 nM.
`Cn1ncc2c1Nc1ccccc1N(C(=O)C13CC4CC(CC(F)(C4)C1)C3)C2` [WJ0807mF, ((1r,3s,5R,7S)-3-Fluoroadamantan-1-yl)(1-methyl-4,10-dihydrobenzo[b]pyrazolo[3,4-e][1,4]diazepin-5 (1H)-yl)methanone]: the melting point was 266 to 268 °C (dec.). In data set [1], the Emax was determined as 25.3%; the “EC50 (OXTR agonist potency, mean ± s.d.)” value is on record as 632.5 ± 148 nM; a half-maximal response (EC50) required 2400 ± 652 nM. The Ki in data set [2] is 1090 ± 58.3 nM. For the same compound, in data set [3], the EC50 is above 10000 nM and the IC50 was above 10000 nM. In addition, the Ki in data set [4] was above 10000 nM.
In the case of `Cc1ccc(C(=O)N2Cc3cnn(C)c3Nc3ccccc32)cc1C` [WJ5103, (3,4-Dimethylphenyl)(1-methyl-4,10-dihydrobenzo[b]pyrazolo[3,4-e][1,4]diazepin-5 (1H)-yl)methanone], the melting point was 254 to 256 °C (dec.). In data set [1], the Emax was determined as 5.87%; the “EC50 (OXTR agonist potency, mean ± s.d.)” value was 147.0 ± 64.3 nM; the EC50 amounted to 109 ± 17.7 nM; the OV function is recorded as 0.37. Affinity in data set [2] was put at a Ki of 14 ± 2 nM. In data set [3], the EC50 is above 10000 nM and the IC50 was determined as 346 ± 90.9 nM. In addition, the affinity in data set [4] corresponds to a Ki of 117 ± 12.4 nM.
As to `Cc1ccc(CN2Cc3cnn(C)c3Nc3ccccc32)cc1C` [WJ05105, 5-(3,4-Dimethylbenzyl)-1-methyl-1,4,5,10-tetrahydrobenzo[b]pyrazolo[3,4-e][1,4]diazepine], the melting point is 171 to 173 °C. In addition, in data set [1], the EC50 was above 10000 nM and the IC50 is above 10000 nM. Further, in data set [2], the Ki was above 10000 nM. In addition, in data set [3], the EC50 is above 10000 nM and the IC50 is above 10000 nM. This compound also displayed a Ki in data set [4] above 10000 nM.
`Cc1ccc2c(c1)N(C(=O)c1ccccc1)Cc1cnn(C)c1N2` [WJ07117Me, (1,7-Dimethyl-4,10-dihydrobenzo[b]pyrazolo[3,4-e][1,4]diazepin-5 (1H)-yl)(phenyl)methanone]: the melting point is 235 to 238 °C. In data set [1], this compound registered an EC50 above 10000 nM and an IC50 above 10000 nM. In data set [2], this compound gave a Ki of 924 nM. In data set [3], this compound displayed an EC50 above 10000 nM and an IC50 above 10000 nM. The Ki in data set [4] amounted to 4070 ± 1220 nM.
Compound `COc1ccc2c(c1)N(C(=O)c1ccccc1)Cc1cnn(C)c1N2` [WJ07117MeO, (7-Methoxy-1-methyl-4,10-dihydrobenzo[b]pyrazolo[3,4-e][1,4]diazepin-5 (1H)-yl)(phenyl)methanone] registered a melting point of 248 to 250 °C. Moreover, in data set [1], the EC50 was above 10000 nM and the IC50 was above 10000 nM. Also, the Ki in data set [2] was 374 nM. In addition, in data set [3], the EC50 was above 10000 nM and the IC50 is above 10000 nM. This compound came in with a Ki in data set [4] above 10000 nM.

As a reminder, the Emax is the maximal effect, on the per cent scale that the assay sets. In general, EC50 refers to the midpoint of the concentration-response curve. For orientation: Ki means the dissociation constant of the complex between target and ligand, obtained from inhibition or displacement. Read a high Ki as lower affinity. The IC50 is the concentration that inhibits the measured activity by half. Low values mean higher potency, high ones lower potency. For orientation: melting point means the temperature, or range, at which the solid turns liquid.
